The numbers were not newly measured in patent US8962010B2, “Intravaginal drug delivery devices for the delivery of macromolecules and water-soluble drugs” (Warner Chilcott Company, LLC, priority 2007, dated 2015), which cites them from elsewhere.

For this series the following is noted: pH 5.

Regarding `CCN(Cc1cccc(S(=O)(=O)[O-])c1)c1ccc(C(=C2C=CC(=[N+](CC)Cc3cccc(S(=O)(=O)[O-])c3)C=C2)c2ccccc2S(=O)(=O)[O-])cc1.[Na+].[Na+]` [Erioglaucine], the water solubility entry is recorded as “more than 20 % w/w”.
